{"source": "patent US12097172B2", "about": "“Prevention and treatment of diabetic nephropathy” (THE CHILDREN'S MEDICAL CENTER CORPORATION, priority 2016, dated 2024)", "key": {"CXCR1 and CXCR2": {"test_system": "CXCR1 and CXCR2", "details": "mice; cited from earlier work"}, "db/db mice": {"test_system": "db/db mice", "experiment": "KC/CXCR2 axis blockade with Reparixin in db/db diabetic mice (urinary albumin excretion, glycemia, kidney histopathology)", "type": "in vivo", "text": "Kidneys from db/db mice at 8, 12 and 25 weeks of age were surgically removed using standard techniques. To perform standard light microscopy, kidneys were fixed in 4% buffered paraformaldehyde (PFA), dehydrated, and paraffin-embedded. AxioVision software 4.3 was used to record the images from Periodic Acid Schiff (PAS) and Trichrome staining. The evaluation of mesangial matrix was electronically performed using a macro built on the AxioVision analysis module (Carl Zeiss Spa, Thornwood, NY). Glomeruli were identified as a region of interest (ROI) and mesangium was highlighted by a color threshold protocol. Binary images were then produced and mesangium was automatically calculated as percentage of the glomerular area. Image acquisition was performed with a Zeiss Axioscope 40FL microscope and AxioCam MRc5 digital video camera (Carl Zeiss SpA). AxioVision software 4.3 was used to record images and AxioVision analysis module to analyze the results (Carl Zeiss SpA). In order to assess the potential role of IL8 blockade in DN progression, 7 weeks old db/db mice were treated with Reparixin 15 mg/kg (ip) twice a day for 18 weeks (up to 25 weeks of age). Briefly, animals were housed in metabolic cages (Nalgene) to separate feces and urine within a light-controlled environment and provided with water ad-libitum. Sample collection tubes passed below the cages and through small holes in the bottom of the light controlled environment. Urine samples from db/db mice were collected through a metabolic cage at week 8, 12, and 25. The BeadLyte Mouse Multi-cytokine Beadmaster Kit (Millipore, Billerica, MA) was used according to the manufacturer's protocol to determine cytokine levels of IL8. Briefly, the supernatant was incubated with beads conjugated to the IL8 alone for a specified amount of time, and then with biotinylated reporters and streptavidin-phycoerythrin solution for 30 min. A Luminex100 reader (Luminex Corporation, Austin, TX) was used to measure the sample cytokine level. All in vitro and in vivo experimental data presented herein in the examples were performed in triplicate, unless indicated otherwise. Proteinuria in db/db mice was performed in 10 untreated and 30 treated animals. Prism statistical software (La Jolla, CA—USA) was used for data analysis. […] For discrete variables, χ^2 test was used. For all tests, p<0.05 was considered significant."}, "Human podocyte cells": {"test_system": "Human podocyte cells", "experiment": "IL8 challenge of human podocytes in vitro (stress fibers, cortical actin, cell blebbing, synaptopodin)", "type": "cell-based", "procedure": "Human podocyte cells bearing a transgene for the thermosensitive (ts58A) variant of the SV40 T antigen, which make them responsive to interferon-γ for proliferation, were cultured and allowed to grow to 80% confluence at 33° C. (designated as day 0). Cells were then thermoshifted to 37° C., causing inactivation of the SV40 T antigen and cessation of cell replication. Podocytes were cultured at different glucose concentrations (normal glucose: 5 mM [NG]; high glucose: 30 mM [HG]) for 5 days. Mannitol was used as an osmotic control for high glucose (mannitol 20 mM+glucose 10 mM) (FIGS. 10A and 10B).\nPodocytes were grown on round glass coverslips (VWR, Radnor, PA) were fixed with paraformaldehyde and then permeabilized with 0.3% Triton X-100 (Fisher Scientific, Waltham, MA). Cells were incubated with rhodamine phalloidin (Invitrogen, Carlsbad, CA) to label F-actin networks and visualize stress fibers. Standard fluorescent microscopy was used to assess stress fiber formation. The percentage of cells containing intact actin filaments was assessed by manual cell counting."}}, "note": "Where a name gives a salt, the structure may show the parent alone."}
{"molecule": "C[C@@H](C(=O)NS(C)(=O)=O)c1ccc(OS(=O)(=O)C(F)(F)F)cc1", "note": "[Ladarixin, R(-)-2-[(4′-trifluoromethanesulfonyloxy)phenyl] propionyl-methanesulfonamide sodium salt]", "values": [{"measurement": "effect on type 1 diabetes", "setting": "CXCR1 and CXCR2", "result": "able to block and revert type 1 diabetes in mice"}]}
{"molecule": "CC(C)Cc1ccc([C@@H](C)C(=O)NS(C)(=O)=O)cc1", "note": "[Reparixin, R(-)-2-[(4-isobutylphenyl)propionyl]-methanesulfonamide]", "values": [{"measurement": "mesangial expansion (kidney histopathology)", "setting": "db/db mice; db/db mice at 25 weeks of age, treated vs control mice", "result": "reduced mesangial expansion"}, {"measurement": "urinary albumin excretion (UAE)", "setting": "db/db mice; db/db mice at 25 weeks of age, Reparixin 15 mg/kg ip twice a day for 18 weeks, p<0.01 vs Ctrl", "result": "211.1 ± 24.4", "unit": "µg/mL"}, {"measurement": "urinary albumin levels over time", "setting": "db/db mice; db/db mice, weeks 8, 12 and 25, Reparixin 15 mg/kg ip twice a day", "result": "remained stable over time"}, {"measurement": "effect on glycemic control", "setting": "db/db mice; db/db mice, Reparixin 15 mg/kg ip twice a day for 18 weeks", "result": "No effect"}, {"measurement": "rescue from IL8 induced damage (loss of stress fibers; increase cortical actin; cell blebbing; loss of synaptopodin expression)", "setting": "Human podocyte cells; reparixin 100 μM, IL8 100 nM, normal glucose and high glucose", "result": "able to rescue podocytes from IL8 induced damage"}]}
{"molecule": "IL8: Interleukin-8 chemokine, ligand of CXCR1 and CXCR2, used as challenge on podocytes", "values": [{"measurement": "stress fibers (phalloidin staining)", "setting": "Human podocyte cells; IL8 100 nM, NG and HG, Ctrl vs. IL8 p<0.05", "result": "loss of stress fibers"}, {"measurement": "cell morphology", "setting": "Human podocyte cells; IL8 treatment, NG and HG", "result": "cell blebbing"}, {"measurement": "cortical actin", "setting": "Human podocyte cells; IL8 treatment, NG and HG", "result": "dose dependent increase in cortical actin"}]}
